Columns and labels:
Format in all cases: cell-based
Settings in all cases: human PBMCs, 24 hours incubation
TNFα = assay: PBMC cytokine profiling assay, TNFα induction
Procedure: (§1) Certain compounds disclosed herein we tested according to the procedure described below. Additionally, certain reference compounds were prepared and tested along with the compounds of the present disclosure.
(§2) Compounds were dissolved and stored in DMSO (Sigma-Aldrich, St. Louis, MO) at 10 mM concentration.
(§3) Cryopreserved human PBMCs isolated from healthy donors were purchased from StemCell Technologies (Vancouver, Canada). Cell culture medium used was RPMI with L-Glutamine (Mediatech, Manassas, VA) supplemented with 10% fetal bovine serum (Hyclone, GE Healthcare, Logan, UT) and Penicillin-Streptomycin (Mediatech). Human TNFα, IL12p40, and IFNα2a 384-well Assay capture plates, standards, buffers and processing reagents were obtained from MesoScale Discovery Technologies (MSD; Rockville, MD).
(§4) Cryopreserved human PBMCs (1×10e8 cells/ml) were thawed at 37° C. and resuspended in 25 mL warm cell culture medium. The cells were pelleted at 200×g (Beckman Avanti J-E) for 5 min and resuspended in 20 mL of fresh culture media. Cells were counted using a Cellometer (Nexcelcom Bioscience), adjusted to 2×10e6 cells, and incubated for 2 hours in an incubator set at 37° C., 5% CO2 to recover from cryopreservation. Compounds were serially diluted in DMSO at half-log steps to generate a 10-point dose range. Using a Bravo pipette equipped with a 384 well head (Agilent), 0.4 μL of compound was transferred to each well of a 384 well black, clear bottom plate (Greiner Bio-One, Germany) containing 30 μL of cell culture medium. Recovered PBMCs were then dispensed into the assay plate at 50 μL per well (100k cells/well) using the MicroFlow multichannel dispenser (Biotek). Final DMSO concentration was 0.5%. DMSO was used as the negative control. The plates were incubated for 24 hours at 37° C. PBMCs in the assay plate were pelleted by centrifugation (Beckman Avanti J-E) at 200×g for 5 min.
(§5) Using a Biomek FX 384 well pipetting station (Beckman), conditioned culture medium (CCM) from the assay plate was transferred to MSD capture plates customized for each cytokine. For IFNα and IL12-p40 detection, 25 μL and 20 μL of CCM were added directly to each capture plate, respectively. For TNFα detection, CCM was diluted 1:9 in fresh culture medium, and 20 μL of diluted CCM was used. Serially diluted calibration standards for each cytokine were used to generate standard curves and establish assay linearity. The plates were sealed and incubated overnight at 4° C. in a plate shaker (Titer Plate) set at 200 rpm. On the following day, antibodies specific for each cytokine were diluted 1:50 in MSD Diluent 100 antibody dilution buffer. Diluted antibodies were added to corresponding capture plates at 10 μL/well, and incubated at RT for 1-2 hrs in the shaker. The plates were washed with PBST buffer (3×, 60 μl/well) using a Biotek Multiflow plate washer. MSD Read Buffer diluted to 2× in deionized water and 35 μL/well was added via Biomek FX instrument. The plates were read immediately in a MSD6000 reader. Data were normalized to positive and negative controls in each assay plate. AC50 values represent compound concentrations at half-maximal effect based on normalized percent activation and calculated by non-linear regression using Pipeline Pilot software (Accelrys, San Diego, CA).

IL12p40 = assay: PBMC cytokine profiling assay, IL12-p40 induction
Procedure: as §1, §2, §3, §4, §5

IFNα = assay: PBMC cytokine profiling assay, IFNα induction
Procedure: as §1, §2, §3, §4, §5

SMILES | AC50 (TNFα; Homo sapiens, PBMC, 24 h) [µM] | AC50 (IL12p40; Homo sapiens, PBMC, 24 h) [µM] | AC50 (IFNα; Homo sapiens, PBMC, 24 h) [µM] | AC50 (TNFα) [µM] | AC50 (IL12p40) [µM] | AC50 (IFNα) [µM]
COc1cnc2c(NC(C)(C)C)nc(N)nc2c1 [Example 113, N^4-(tert-butyl)-7-methoxypyrido[3,2-d]pyrimidine-2,4-diamine] | 12.5 | 13.6 | > 50 | – | – | –
CCC[C@H](CO)Nc1nc(N)nc2cccnc12 [Example 8, (R)-2-((2-aminopyrido[3,2-d]pyrimidin-4-yl)amino)pentan-1-ol] | 20.2 | 19.4 | > 50 | – | – | –
CCC(F)(F)C[C@H](CO)Nc1nc(N)nc2cccnc12 [Example 79, (R)-2-((2-aminopyrido[3,2-d]pyrimidin-4-yl)amino)-4,4-difluorohexan-1-ol] | 9.1 | 11.5 | > 50 | – | – | –
CCCCC(CC)(CO)Nc1nc(N)nc2cccnc12 (stereo not drawn) [Example 85, 2-((2-aminopyrido[3,2-d]pyrimidin-4-yl)amino)-2-ethylhexan-1-ol] | 0.86 | 0.8 | 4 | – | – | –
C=CCC[C@H](CO)Nc1nc(N)nc2cccnc12 [Example 72, (R)-2-((2-aminopyrido[3,2-d]pyrimidin-4-yl)amino)hex-5-en-1-ol] | 7.2 | 7 | > 50 | – | – | –
Nc1nc(NCCCC(F)(F)F)c2ncccc2n1 [Example 29, N^4-(4,4,4-trifluorobutyl)pyrido[3,2-d]pyrimidine-2,4-diamine] | 18.3 | 15.5 | 3.9 | – | – | –
CC(F)(F)CC[C@H](CO)Nc1nc(N)nc2cccnc12 [Example 78, (R)-2-((2-aminopyrido[3,2-d]pyrimidin-4-yl)amino)-5,5-difluorohexan-1-ol] | 16 | 14.2 | > 50 | – | – | –
CCC[C@@H](CO)Nc1nc(N)nc2cc(F)c(C)nc12 [Example 67, (S)-2-((2-amino-7-fluoro-6-methylpyrido[3,2-d]pyrimidin-4-yl)amino)pentan-1-ol] | 6.3 | 3.9 | 23 | – | – | –
CCCC[C@@H](Nc1nc(N)nc2cccnc12)C(O)C(F)F (single isomer, unassigned) [Example 90] | 0.86 | 0.62 | 7.8 | – | – | –
CCCC[C@@H](Nc1nc(N)nc2cccnc12)c1nnc[nH]1 [Example 56, (R)—N^4-(1-(4H-1,2,4-triazol-3-yl)pentyl)pyrido[3,2-d]pyrimidine-2,4-diamine] | 3.6 | 3.4 | 1.9 | – | – | –
CCCCC(C)(CO)Nc1nc(N)nc2cc(F)cnc12 (stereo not drawn) [Example 63, 2-((2-amino-7-fluoropyrido[3,2-d]pyrimidin-4-yl)amino)-2-methylhexan-1-ol] | 0.41 | 0.43 | 22.4 | – | – | –
CCCC[C@](C)(CN[C@@H](C)C(F)(F)F)Nc1nc(N)nc2cccnc12 [Example 118, N^4—((R)-2-methyl-1-(((S)-1,1,1-trifluoropropan-2-yl)amino)hexan-2-yl)pyrido[3,2-d]pyrimidine-2,4-diamine] | 9.3 | 9.1 | > 50 | – | – | –
CCCC[C@H](CO)Nc1nc(N)nc2cc(OCC)cnc12 [Example 106, (R)-2-((2-amino-7-ethoxypyrido[3,2-d]pyrimidin-4-yl)amino)hexan-1-ol] | 13.8 | 10.2 | > 50 | – | – | –
Nc1nc(NC(CO)CO)c2ncccc2n1 [Example 17, 2-((2-aminopyrido[3,2-d]pyrimidin-4-yl)amino)propane-1,3-diol] | > 50 | > 50 | > 50 | – | – | –
CCCC[C@H](CO)Nc1nc(N)nc2cc(C)cnc12 [Example 107, (R)-2-((2-amino-7-methylpyrido[3,2-d]pyrimidin-4-yl)amino)hexan-1-ol] | 2.8 | 1.8 | > 50 | – | – | –
CCCC[C@H](CO)Nc1nc(N)nc2cc(F)cnc12 [Example 44, (R)-2-((2-amino-7-fluoropyrido[3,2-d]pyrimidin-4-yl)amino)hexan-1-ol] | 3 | 2.4 | > 50 | – | – | –

SMILES | AC50 (TNFα; Homo sapiens, PBMC, 24 h) [µM] | AC50 (IL12p40; Homo sapiens, PBMC, 24 h) [µM] | AC50 (IFNα; Homo sapiens, PBMC, 24 h) [µM] | AC50 (TNFα) [µM] | AC50 (IL12p40) [µM] | AC50 (IFNα) [µM]
CCCCC[C@](C)(CNC(C)=O)Nc1nc(N)nc2cccnc12 [Example 116, (R)—N-(2-((2-aminopyrido[3,2-d]pyrimidin-4-yl)amino)-2-methylheptyl)acetamide] | 0.036 | 0.11 | > 50 | – | – | –
CCC[C@@H](CO)Nc1nc(N)nc2cc(Br)cnc12 [Example 18F, (S)-2-((2-amino-7-bromopyrido[3,2-d]pyrimidin-4-yl)amino)pentan-1-ol] | 16.1 | 15.2 | 30.6 | – | – | –
CCCC[C@@](C)(Nc1nc(N)nc2cccnc12)C(C)O (single isomer, unassigned) [Example 96] | – | – | – | 1.1 | 1 | 2.8
CCC[C@H](Nc1nc(N)nc2cccnc12)C(=O)NC [Example 31, (S)-2-((2-aminopyrido[3,2-d]pyrimidin-4-yl)amino)-N-methylpentanamide] | 4.7 | 4.7 | 32.9 | – | – | –
CCC[C@@H](CO)Nc1nc(N)nc2cc(F)c(Cl)nc12 [Example 24D] | 3.4 | 3.1 | 18.4 | – | – | –
CCCC[C@@H](Nc1nc(N)nc2cccnc12)C(=O)NCCO [Example 54, (R)-2-((2-aminopyrido[3,2-d]pyrimidin-4-yl)amino)-N-(2-hydroxyethyl)hexanamide] | 34 | 42.5 | > 50 | – | – | –
C=CCC[C@](C)(CO)Nc1nc(N)nc2cc(F)cnc12 [Example 84, (R)-2-((2-amino-7-fluoropyrido[3,2-d]pyrimidin-4-yl)amino)-2-methylhex-5-en-1-ol] | 3 | 3.9 | > 50 | – | – | –
CCCC[C@H](CO)Nc1nc(N)nc2cc(OC)cnc12 [Example 105, (R)-2-((2-amino-7-methoxypyrido[3,2-d]pyrimidin-4-yl)amino)hexan-1-ol] | 3.5 | 3.4 | > 50 | – | – | –
Nc1nc(NCC2CCCO2)c2ncccc2n1 (stereo not drawn) [Example 16, N^4-((tetrahydrofuran-2-yl)methyl)pyrido[3,2-d]pyrimidine-2,4-diamine] | > 50 | > 50 | > 50 | – | – | –
CCCC[C@H](CO)Nc1nc(N)nc2cc(Cl)cnc12 [Example 23C, (R)-2-((2-amino-7-chloropyrido[3,2-d]pyrimidin-4-yl)amino)hexan-1-ol] | 24.7 | 25.7 | > 50 | – | – | –
CC[C@H](C)[C@@H](CO)Nc1nc(N)nc2cccnc12 [Example 9, (2S,3S)-2-((2-aminopyrido[3,2-d]pyrimidin-4-yl)amino)-3-methylpentan-1-ol] | 1.9 | 1.1 | 7.2 | – | – | –
CCC[C@H](Nc1nc(N)nc2cccnc12)C(N)=O [Example 30B, (S)-2-((2-aminopyrido[3,2-d]pyrimidin-4-yl)amino)pentanamide] | 10.6 | 8.6 | > 50 | – | – | –
C=CC[C@](C)(CO)Nc1nc(N)nc2cccnc12 [Example 81, (R)-2-((2-aminopyrido[3,2-d]pyrimidin-4-yl)amino)-2-methylpent-4-en-1-ol] | 7.6 | 7.8 | > 50 | – | – | –
CCCC[C@](C)(Nc1nc(N)nc2cccnc12)C(C)O (single isomer, unassigned) [Example 92] | 4.3 | 4.7 | > 50 | – | – | –
CCC[C@@H](CO)Nc1nc(N)nc2c(C)ccnc12 [Example 26E, (S)-2-((2-amino-8-methylpyrido[3,2-d]pyrimidin-4-yl)amino)pentan-1-ol] | 2.3 | 1.7 | 13.5 | – | – | –
CCCCC(Nc1nc(N)nc2cccnc12)C(C)O (stereo not drawn) [Example 103, 3-((2-aminopyrido[3,2-d]pyrimidin-4-yl)amino)heptan-2-ol] | 3.3 | 2.6 | – | – | – | 10.3
